Experimental data as given in patent publication US5795907A, “Gastin and CCK receptor ligands” (James Black Foundation Limited, priority 1994, dated 1998).

Assays:
[1] = target: T1, CCKA (Cavia porcellus, UniProt Q63931); experiment: CCKA radioligand binding assay in guinea-pig pancreas membranes ([125I]-CCK8(S)); settings: PD134,308 present, 150 minutes at 21±3°; for Ki: read-out: CCKA pKi (converted)
T1 construct: The pancreatata were homogenised in 40 ml ice-cold HEPES buffer using a polytron; from tissue; host or cells: pancreas membranes of male Dunkin Hartley guinea-pigs
T1 sequence (Q63931 1-430): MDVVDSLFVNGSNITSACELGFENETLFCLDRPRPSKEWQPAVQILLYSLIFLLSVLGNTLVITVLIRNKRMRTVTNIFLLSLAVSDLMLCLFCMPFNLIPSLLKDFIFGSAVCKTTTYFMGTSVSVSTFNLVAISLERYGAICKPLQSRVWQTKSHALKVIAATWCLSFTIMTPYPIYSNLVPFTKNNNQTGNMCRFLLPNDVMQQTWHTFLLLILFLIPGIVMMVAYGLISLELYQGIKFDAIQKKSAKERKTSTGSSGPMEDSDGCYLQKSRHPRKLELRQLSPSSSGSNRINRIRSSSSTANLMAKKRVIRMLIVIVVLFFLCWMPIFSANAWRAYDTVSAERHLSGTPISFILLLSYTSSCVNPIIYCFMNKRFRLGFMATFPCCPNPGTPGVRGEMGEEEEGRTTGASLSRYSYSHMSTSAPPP
Description: The compounds of the examples were also tested in a CCKA as follows:
The pancreatata were removed from male guinea-pigs (200-300 g; Dunkin Hartley) and placed in ice-cold HEPES buffer (pH 7.2 @ 21 ±3). The pancreatata were homogenised in 40 ml ice-cold HEPES buffer using a polytron (Brinkmann, PT10, setting 10) 4×1 second. The homogenate was centrifuged at 39,800 g for 15 min at 4°. The supernatant was discarded and the pellet re-suspended using a Teflon-in-glass homogeniser in 20 volumes of fresh buffer and re-centrifuged as above.
The final pellet was re-suspended using a Teflon-in-glass homogeniser to a tissue concentration of 1 mg.ml^-1 (original wet weight), and filtered through 500 μm pore-size Nytex mesh.
The membranes (400 μl; containing 0.375 μM PD134,308) are incubated for 150 minutes at 21±3° in a final volume of 0.5 ml with HEPES buffer containing [^125 I]-CCK8 (S) (50 μl; […]) and competing compound. Total and non-specific binding of [^125 I]-CCK8 (S) are defined using 50 μl of buffer and 50 μl of 100 nM L-364,718 respectively. The assay is terminated by rapid filtration through pre-soaked Whatman GF/B filters using a Brandell Cell Harvester. The filters were washed (3×3 ml) with ice-cold 50 mM Tris HCl (pH 7.4 at 4°) and bound radioactivity is determined by counting (1 min) in a gamma counter.

[2] = target: T2, CCKB receptor (Mus musculus, UniProt P56481); experiment: CCKB receptor radioligand binding assay in mouse cortical membranes ([125I]-CCK8S); settings: [125I]-CCK8S 200 pM, 150 min at 21±3°; for Ki: read-out: CCKB pKi (converted)
T2 construct: The cortex was dissected, weighed and homogenised in 40ml ice-cold buffer; tissue Charles River (supplier of the CD1 mice); host or cells: cerebral cortex membranes of male CD1 mice
T2 sequence (P56481 1-453): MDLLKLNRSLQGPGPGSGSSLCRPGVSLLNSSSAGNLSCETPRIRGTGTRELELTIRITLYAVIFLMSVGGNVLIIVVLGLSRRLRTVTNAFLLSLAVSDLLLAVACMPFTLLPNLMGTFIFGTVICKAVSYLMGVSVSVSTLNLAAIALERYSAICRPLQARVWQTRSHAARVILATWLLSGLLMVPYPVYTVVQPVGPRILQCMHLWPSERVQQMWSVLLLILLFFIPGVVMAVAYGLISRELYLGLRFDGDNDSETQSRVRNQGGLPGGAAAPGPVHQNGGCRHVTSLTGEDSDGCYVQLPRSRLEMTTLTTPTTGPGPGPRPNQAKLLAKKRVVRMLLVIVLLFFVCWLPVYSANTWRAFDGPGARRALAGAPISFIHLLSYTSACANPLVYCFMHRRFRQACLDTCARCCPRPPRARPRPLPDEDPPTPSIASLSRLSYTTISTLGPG
Method in brief: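 Cortical membranes from male CD1 mice in HEPES buffer (pH 7.2; NaCl, KCl, MgCl2, EDTA, bacitracin) were incubated with competing compound and [125I]-CCK8S (added as a 200 pM solution) for 150 min at 21±3°. Non-specific binding was defined with L-365,260. Bound tracer was separated by GF/B filtration and counted by gamma counting.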

[3] = target: T3, gastrin (Rattus norvegicus, UniProt P30553); experiment: gastrin antagonist activity in an immature rat stomach assay (pentagastrin-stimulated acid secretion); settings: cumulative pentagastrin dose-response curves after 60 min with drug; for Kb: read-out: Gastrin pKB (converted)
T3 construct: The stomach was lowered into a jacketed organ bath containing 40 ml of buffered solution; from tissue; host or cells: isolated perfused whole stomach of immature rats (ca. 21 days old)
T3 sequence (P30553 1-452): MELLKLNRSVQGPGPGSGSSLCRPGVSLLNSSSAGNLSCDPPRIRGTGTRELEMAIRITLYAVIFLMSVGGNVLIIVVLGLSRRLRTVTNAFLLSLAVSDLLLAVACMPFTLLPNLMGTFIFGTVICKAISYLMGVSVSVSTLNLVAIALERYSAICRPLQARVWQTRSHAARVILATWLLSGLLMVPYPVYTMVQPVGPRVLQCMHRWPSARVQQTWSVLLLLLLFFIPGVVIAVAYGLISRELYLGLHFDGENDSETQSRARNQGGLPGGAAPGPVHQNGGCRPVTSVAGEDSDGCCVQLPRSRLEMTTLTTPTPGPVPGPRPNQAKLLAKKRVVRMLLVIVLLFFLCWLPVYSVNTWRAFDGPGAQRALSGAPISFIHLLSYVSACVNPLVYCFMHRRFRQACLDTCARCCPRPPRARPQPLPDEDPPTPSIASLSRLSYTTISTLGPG
Description: The compounds of the examples were also tested for gastrin antagonist activity in an immature rat stomach assay. The procedure was as follows:
The oesophagus of immature rats (33-50 g, ca. 21 days old) was ligated at the level of the cardiac sphincter and the duodenal sphincter was cannulated. The stomach was excised and flushed with ca. 1 ml of unbuffered physiological saline solution. The fundus was punctured and cannulated. A further 4-5 ml of unbuffered solution was flushed through the stomach to ensure the preparation was not leaking. The stomach was lowered into a jacketed organ bath containing 40 ml of buffered solution containing 3×10^-8 M 5-methylfurmethide, maintained at 37° and gassed vigorously with 95% O2 /5% CO2. The stomach was continuously perfused at a rate of 1 ml min^-1 with unbuffered solution gassed with 100% O2 with the perfusate passing over an internally referenced pH-electrode fixed 12 cm above the stomach.
After 120 min of stabilisation the drugs were added directly to the serosal solution in the organ bath and after a further 60 min cumulative pentagastrin dose-response curves were started. Changes in acid secretion were monitored and the curves analysed according to Black et.al., Br. J. Pharmacol., 1985, 86, 581.

Row | Molecule | Ki [1] [µM] | Ki [2] [µM] | Kb [3] [µM] | CCKA pKi [1] | CCKB pKi [2] | Gastrin pKB [3]
1 | O=C(O)c1cc(NC(=O)[C@H](Cc2ccccc2)NC(=O)c2cc3[nH]ccc3cc2C(=O)NCC23CC4CC(CC(C4)C2)C3)cc(C(=O)O)c1 [Example 26, 6-(1S-(3,5-dicarboxyphenylaminocarbonyl)-2-phenylethylaminocarbonyl)-5-(1-adamantanemethylaminocarbonyl)-indole] | 3.16 | 0.0126 | 0.000501 |  |  | 
2 | C[C@@H](NC(=O)c1cc2ccccc2cc1C(=O)NCC12CC3CC(CC(C3)C1)C2)C(=O)O [Example 5, 2-(1R-carboxyethylamino-carbonyl)-3-(1-adamantanemethylaminocarbonyl)-naphthalene] | 6.31 | 1 | 0.158 |  |  | 
3 | O=C(O)c1cc(NC(=O)[C@H](Cc2ccccc2)NC(=O)c2cc3ccsc3cc2C(=O)NCC23CC4CC(CC(C4)C2)C3)cc(C(=O)O)c1 [Example 125, 5-(1S-(3,5-dicarboxyphenylaminocarbonyl)-2-phenylethylaminocarbonyl)-6-(1-adamantanemethylaminocarbonyl)-benzothiophene] |  |  |  | 5.7 | 8.9 | 9.4
4 | C[C@@H](NC(=O)C[C@@H]1CCCN1C(=O)c1cc2ccccc2cc1C(=O)NCC12CC3CC(CC(C3)C1)C2)C(=O)O [Example 16, 2-(2S-(1R-carboxyethylaminocarbonylmethyl)-pyrrolidinocarbonyl)-3-(1-adamantanemethylaminocarbonyl)-naphthalene] |  |  |  | 5.5 | 5.6 | 6.2
5 | O=C(O)c1cc(NC(=O)[C@H](Cc2ccccc2)NC(=O)c2cc3ccccc3cc2C(=O)NCC23CC4CC(CC(C4)C2)C3)cc(C(=O)O)c1 [Example 15, 2-(1S-(3,5-dicarboxyphenylaminocarbonyl)-2-phenylethylaminocarbonyl)-3-(1-adamantanemethylaminocarbonyl)-naphthalene] |  |  |  | 6.1 | 7.9 | 8.2
6 | 1/2-(1-adamantanemethylaminocarbonyl)-naphthoic acid Regioisomer 1 [Example 21] |  |  |  | 5.2 |  | 5.3

Other lines, results leading:

Row | Ki [1] [µM] | Ki [2] [µM] | Kb [3] [µM] | CCKA pKi [1] | CCKB pKi [2] | Gastrin pKB [3] | Molecule
7 | 3.98 | 0.00398 | 0.001 |  |  |  | O=C(O)c1cc(NC(=O)[C@H](Cc2ccc(F)cc2)NC(=O)c2cc3[nH]cnc3cc2C(=O)NCC23CC4CC(CC(C4)C2)C3)cc(C(=O)O)c1 [Example 132, 5-(1S-(3,5-dicarboxyphenylaminocarbonyl)-2-(4-fluorophenyl)ethylaminocarbonyl)-6-(1-adamantanemethylaminocarbonyl)-benzimidazole]
8 |  | 0.0316 | 0.02 | 5.0 |  |  | CN(C(=O)c1cc2[nH]cnc2cc1C(=O)NCC12CC3CC(CC(C3)C1)C2)[C@@H](Cc1ccccc1)C(=O)Nc1cc(C(=O)O)cc(C(=O)O)c1 [Example 86, 5-(1S-(3,5-dicarboxyphenylaminocarbonyl)-2-30 phenylethyl-(N-methylamino)-carbonyl)-6-(1-adamantanemethylaminocarbonyl)-benzimidazole]
9 | > 10 | 0.631 | 0.126 |  |  |  | O=C(O)CNC(=O)[C@H]1CCCN1C(=O)c1cc2[nH]cnc2cc1C(=O)NCC12CC3CC(CC(C3)C1)C2 [Example 76, 5-(2R-carboxymethylaminocarbonylpyrrolidino-carbonyl)-6-(1-adamantanemethylaminocarbonyl)-benzimidazole]
10 |  |  |  | 5.4 | 8.5 | 9.7 | 5-(1S-(3,5-dicarboxyphenylaminocarbonyl)-2-(3-fluorophenyl)ethylaminocarbonyl)-6-(1-adamantanemethylaminocarbonyl)-indole and regioisomer with substituents at positions 5 and 6 reversed [Example 28]
11 | 7.94 |  | 0.00794 |  |  |  | O=C(O)c1cc(NC(=O)[C@H](Cc2ccccc2C(F)(F)F)NC(=O)c2cc3[nH]cnc3cc2C(=O)NCC23CC4CC(CC(C4)C2)C3)cc(C(=O)O)c1 [Example 133, 5-(1S-(3,5-dicarboxyphenylaminocarbonyl)-2-(2-trifluoromethylphenyl)ethylaminocarbonyl)-6-(1-adamantanemethylaminocarbonyl)-benzimidazole]
12 |  |  |  | 5.6 | 8.1 | 7.7 | O=C(NCC12CC3CC(CC(C3)C1)C2)c1cc2[nH]ccc2cc1C(=O)N[C@@H](Cc1ccccc1)C(=O)Nc1cc(NS(=O)(=O)C(F)(F)F)cc(NS(=O)(=O)C(F)(F)F)c1 [Example 93, 5-(1S-(3,5-di-trifluoromethylsulphonylaminophenylaminocarbonyl)-2-phenylethylaminocarbonyl)-6-(1-adamantanemethylaminocarbonyl)-indole]
13 | 2 | 0.02 | 0.02 |  |  |  | O=C(O)c1cc(NC(=O)[C@H](Cc2ccccc2)NC(=O)C2Cc3ccccc3CN2C(=O)NCC23CC4CC(CC(C4)C2)C3)cc(C(=O)O)c1 (stereo partly drawn) [Example 57, 3-(1S-(3,5-dicarboxyphenylaminocarbonyl)-2-phenylethylaminocarbonyl)-2-(1-adamantanemethylaminocarbonyl)-1,2,3,4-tetrahydroisoquinoline]
